Experimental data: patent publication US20260240895A1, “BETA-GLUCAN PARTICLES FOR TRAINED IMMUNITY” (THE PROVOST, FELLOWS, FOUNDATION SCHOLARS, AND THE OTHER …, priority 2022, published 2026)
Read-outs that look alike come from different tables or passages of the source.

Columns and labels:
[1] = test system: mTOR (phospho-S6 ribosomal protein); experiment: Intracellular phospho-S6 staining by flow cytometry (mTOR activity); format: cell-based, human; conditions: 15 min pre-treatment, dWGP 10 μg/mL 2 h
Protocol: To analyse phospho-S6 ribosomal protein activity after β-glucan treatment, PBMCs were isolated as above and resuspended in RPMI-1640 media supplemented with 10% human AB serum (Sigma-Aldrich) at 2×10^6/mL. Cells were first incubated with metabolic inhibitors for 15 min as indicated above. […] After the incubation time, cells were resuspended by vortexing quickly, washed in flow buffer; [PBS-1× (Gibco) supplemented with 5% heat inactivated FBS (Gibco) and 0.1% Sodium azide (Sigma)] and the following flow cytometry staining protocol was applied to all samples with up to 100,000 cells per sample. Cells were stained with fixable viability stain ZombieAqua™ (Biolegend) at the concentration of 1:500 for 15 minutes. Subsequently, samples were washed with flow buffer and incubated with anti-Dectin-1-PE (clone 15E2, Biolegend) antibody for Dectin-1 surface staining, then washed and fixed 20 minutes with IC Fixation Buffer (Invitrogen). […] All cells were subsequently washed with flow buffer and resuspended 20 minutes with IC Fixation Buffer (Invitrogen) for fixation. Cells were then washed with flow buffer, incubated at 4° C. for 30 minutes with Perm/Wash Buffer (BD Biosciences) containing anti-phospho-S6-PE (Ser235/236) (cloneD57.2.2E, Cell Signaling) at 1:200 for intracellular pS6 staining, and finally washed again with flow buffer. Compensation controls were obtained after staining UltraComp eBeads™ Compensation Beads (Invitrogen) with the appropriate antibodies. Cells were acquired on the BD flow cytometer Canto II with FACSDiva software. Data analysis and flow charts were performed using FlowJo software v.7.6 (TreeStar).

Dectin-1b = target: T1, Dectin-1b (Homo sapiens, UniProt Q9BXN2); experiment: hDectin1b-HEK293 NFκB-SEAP reporter cell assay (QuantiBlue); format: cell-based; conditions: for NFκB-linked SEAP activity (Dectin-1b activation): β-glucans 1, 10 & 100 μg/mL, 6 h, relative to untreated cells; for blocking of BGP- or dWGP-driven NFκB-SEAP activation: pre-incubation 1 h before BGP or dWGP 100 μg/mL
T1 construct: host or cells: HEK293 (HEK-Blue) NFκB-SEAP reporter cells
T1 sequence (Q9BXN2 1-201 isoform Q9BXN2-2): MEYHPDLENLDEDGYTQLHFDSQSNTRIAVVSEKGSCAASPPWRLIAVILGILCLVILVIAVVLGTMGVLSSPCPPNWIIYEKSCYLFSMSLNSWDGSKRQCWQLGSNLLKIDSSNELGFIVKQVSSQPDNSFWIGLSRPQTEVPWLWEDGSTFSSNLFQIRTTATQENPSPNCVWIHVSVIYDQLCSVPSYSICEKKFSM

Dectin-1 = target: T2, Dectin-1 (Homo sapiens, UniProt Q9BXN2); experiment: Surface Dectin-1 expression on monocytes by flow cytometry; format: cell-based; conditions: CytD 10 μM 1 h before dWGP 100 μg/mL 15 min
T2 construct: incubated with anti-Dectin-1-PE (clone 15E2, Biolegend) antibody for Dectin-1 surface staining; endogenous in cells; host or cells: primary human monocytes (PBMC from buffy coats)
T2 sequence (Q9BXN2 1-247): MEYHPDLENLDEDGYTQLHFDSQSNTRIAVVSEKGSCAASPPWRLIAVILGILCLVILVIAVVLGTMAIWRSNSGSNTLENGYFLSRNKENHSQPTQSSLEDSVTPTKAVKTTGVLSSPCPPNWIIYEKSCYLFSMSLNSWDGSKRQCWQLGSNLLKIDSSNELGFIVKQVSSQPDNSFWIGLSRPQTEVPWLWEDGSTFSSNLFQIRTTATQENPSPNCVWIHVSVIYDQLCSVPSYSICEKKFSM
Protocol: To analyse phospho-S6 ribosomal protein activity after β-glucan treatment, PBMCs were isolated as above and resuspended in RPMI-1640 media supplemented with 10% human AB serum (Sigma-Aldrich) at 2×10^6/mL. Cells were first incubated with metabolic inhibitors for 15 min as indicated above. […] After the incubation time, cells were resuspended by vortexing quickly, washed in flow buffer; [PBS-1× (Gibco) supplemented with 5% heat inactivated FBS (Gibco) and 0.1% Sodium azide (Sigma)] and the following flow cytometry staining protocol was applied to all samples with up to 100,000 cells per sample. Cells were stained with fixable viability stain ZombieAqua™ (Biolegend) at the concentration of 1:500 for 15 minutes. Subsequently, samples were washed with flow buffer and incubated with anti-Dectin-1-PE (clone 15E2, Biolegend) antibody for Dectin-1 surface staining, then washed and fixed 20 minutes with IC Fixation Buffer (Invitrogen). Alternatively, cells were incubated with anti-CD14-APC (clone M5E2, Biolegend), anti-CD16-PE-Cy7 (clone 3G8, Biolegend), anti-HLA-DR-BB515 (clone G46-6, BD Bioscience) at a concentration of 1:100 in flow buffer for 30 minutes at 4° C. All cells were subsequently washed with flow buffer and resuspended 20 minutes with IC Fixation Buffer (Invitrogen) for fixation. […]

[2] = test system: human monocytes / monocyte-derived macrophages (hMDM); experiment: Human monocyte training assay: cytokine ELISA after restimulation of monocyte-derived macrophages; format: cell-based
[3] = test system: bone marrow hematopoietic stem & progenitor cells (HSPC); experiment: In vivo induction of trained immunity: flow cytometry of mouse bone marrow HSPC populations; conditions: 0.050% w/w in chow, 4 weeks
human monocytes = experiment: TNF production by monocytes 24 h post-training (monocyte activation); format: cell-based; conditions: TNF 24 h after dWGP

CO/C1=C\C(C)=C\[C@@H](C)[C@@H](O)[C@@H](C)C/C(C)=C/C=C/[C@H](OC)[C@@H]([C@@H](C)[C@@H](O)[C@H](C)[C@@]2(O)C[C@@H](O)[C@H](C)[C@@H](C(C)C)O2)OC1=O [bafilomycin A1]
effect of inhibitor pre-treatment on dWGP-driven p-S6 / mTOR activation [1]: profound decrease in monocyte mTOR activation by dWGP

Pustulan
NFκB-linked SEAP activity (Dectin-1b activation) (Dectin-1b): drive NFκB signaling in a dose-dependent fashion

C=C1[C@@H](C)[C@H]2[C@H](Cc3ccccc3)NC(=O)[C@]23[C@H](OC(C)=O)/C=C/[C@@](C)(O)C(=O)[C@@H](C)C/C=C/[C@H]3[C@@H]1O [cytD, cytochalasin-D]
effect of inhibitor on dWGP-induced loss of surface Dectin-1 (Dectin-1): blunts this effect
effect of inhibitor pre-treatment on β-glucan training (TNF after LPS restimulation) [2]: preferentially blocked the training effect
effect of inhibitor pre-treatment on dWGP-driven p-S6 / mTOR activation [1]: blocked monocyte mTOR activation driven by dWGP

laminarin
effect of inhibitor pre-treatment on β-glucan training (TNF after LPS restimulation) [2]: more effective at all doses tested
blocking of BGP- or dWGP-driven NFκB-SEAP activation (Dectin-1b): block Dectin-1b mediated NFκB activation

inulin
trained immunity-like effects (bone marrow progenitors, BMDM cytokines) [3]: behaving similarly to control chow-fed mice

O=CC[C@@H](O)[C@H](O)[C@H](O)CO [2DG, 2-deoxyglucose]
effect of inhibitor pre-treatment on β-glucan training (TNF after LPS restimulation) [2]: abolished the ability of dWGP to increase LPS-restimulation responses

Cc1ccc(S(=O)(=O)/C=C/C#N)cc1 [BAY 11-7082]
effect of inhibitor pre-treatment on early monocyte TNF production driven by dWGP (human monocytes): enhanced early TNF production
effect of inhibitor pre-treatment on β-glucan training (TNF after LPS restimulation) ([2]; inhibitor added to monocytes prior to training with dWGP and/or BGP, LPS 10 ng/ml 6 h): abolishment of LPS-restimulation driven TNF production in trained macrophages

Oc1cc(O)cc(/C=C/c2ccc(O)c(O)c2)c1 [PIC, picethanol]
effect of inhibitor pre-treatment on early monocyte TNF production driven by dWGP (human monocytes): block traditional pro-inflammatory signaling and monocyte TNF production
effect of inhibitor pre-treatment on β-glucan training (TNF after LPS restimulation) [2]: suppressed monocyte training driven by both BGP and dWGP
effect of inhibitor pre-treatment on dWGP-driven p-S6 / mTOR activation [1]: did not affect mTOR up-regulation
blocking of BGP- or dWGP-driven NFκB-SEAP activation (Dectin-1b): blocking NFκB activation driven by dWGP and BGP

Curdlan
TNF production upon LPS restimulation (training) ([2]; monocytes exposed 24 h, matured 5 days, LPS 10 ng/ml 6 h, vs untrained): A trend toward some training was observed
NFκB-linked SEAP activity (Dectin-1b activation) (Dectin-1b): drive NFκB signaling in a dose-dependent fashion
